Consider 14 compounds from article PMC6811590, “Solution structure, glycan specificity and of phenol oxidase inhibitory activity of Anopheles C-type lectins CTL4 and CTLMA2” (Scientific Reports, 2019).

Data set [1] deals with T1, CTLMA2 (Anopheles gambiae, UniProt Q7Q7F8).
T1 construct: gene 1276042; 6xHis-tagged CTLMA2 monomer, secreted from T.ni insect cells (baculovirus, synthetic gene)
T1 sequence (Q7Q7F8 18-174): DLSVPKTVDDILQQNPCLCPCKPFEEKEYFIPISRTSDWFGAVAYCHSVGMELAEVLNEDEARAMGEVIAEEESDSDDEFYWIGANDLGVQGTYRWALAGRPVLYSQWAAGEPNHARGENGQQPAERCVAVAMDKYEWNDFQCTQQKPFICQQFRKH
The data set is described as follows: glycan array, anti-His fluorescence detection. The class given is binding. To be noted: PBS, 1 mM CaCl2, 1 mM MgCl2; glycan immobilised through spacer. From the text: glycan array, anti-His fluorescence detection on CTLMA2

Data set [2] concerns the target T1, CTLMA2. The data set is described as follows: SPR steady-state affinity (Biacore T200, protein immobilised on CM5). The class given is binding. Conditions: PBS, 1 mM CaCl2, 1 mM MgCl2. From the text:
SPR steady-state affinity (Biacore T200, protein immobilised on CM5) on CTLMA2
Background: SPR reads the build-up and loss of mass on a sensor chip optically.

The target in data set [3] is T2, CTL4/CTLMA2 (Anopheles gambiae, UniProt Q7Q7F7+Q7Q7F8).
T2 construct: gene 1276043; disulfide-bridged heterodimer, pFastbac-Dual, C-terminal 6xHis on CTL4 (178-183), secreted from T.ni cells, signal peptides removed; 35 kDa
T2 sequence (Q7Q7F7 25-177): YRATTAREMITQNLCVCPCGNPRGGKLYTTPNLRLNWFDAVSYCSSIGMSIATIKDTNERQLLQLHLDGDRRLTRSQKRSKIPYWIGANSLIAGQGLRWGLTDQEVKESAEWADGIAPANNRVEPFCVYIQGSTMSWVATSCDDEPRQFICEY
T2 sequence (Q7Q7F8 18-174): T1 sequence (Q7Q7F8 18-174)
Described as above. In kind it is binding. Conditions: PBS, 1 mM CaCl2, 1 mM MgCl2. From the text: SPR steady-state affinity (Biacore T200, protein immobilised on CM5) on CTL4/CTLMA2

Data set [4] concerns the target T3, CTL4 (Anopheles gambiae, UniProt Q7Q7F7).
T3 construct: gene 1276043; 6xHis-tagged CTL4 monomer, secreted from T.ni insect cells (baculovirus, synthetic gene)
T3 sequence (Q7Q7F7 25-177): T2 sequence (Q7Q7F7 25-177)
The data set is described as above. To be noted: PBS, 1 mM CaCl2, 1 mM MgCl2. In kind it is binding. From the text:
SPR steady-state affinity (Biacore T200, protein immobilised on CM5) on CTL4

Data set [5] relates to An. gambiae CTL4 (AGAP005335) with C-terminal 6xHis tag, chain of the CTL4/CTLMA2 heterodimer. The data set is described as follows: non-reducing SDS-PAGE; purified CTL4/CTLMA2 on non-reducing and reducing SDS-PAGE; shows the disulfide-bridged species. Conditions: other: non-reducing SDS-PAGE.
Data set [6] has as its target T2, CTL4/CTLMA2. As to the kind of experiment: glycan array, anti-His fluorescence detection. In kind it is binding. To be noted: PBS, 1 mM CaCl2, 1 mM MgCl2; glycan immobilised through spacer. From the text:
glycan array, anti-His fluorescence detection on CTL4/CTLMA2

In data set [1], “GlcNAcβ1-4Galβ1-4GlcNAcβ-sp2 [compound 251]” had a CTLMA2 of 1.04 fold.

For `CC(=O)N[C@H]1C(O)O[C@H](CO)[C@@H](O)[C@@H]1O` (stereo partly drawn) [113,251, GlcNAc monosaccharide], the Kd in data set [2] is 29.7 ± 7.91 µM; in data set [3], 21.9 ± 2.8 µM; in data set [4] it was 27.9 ± 11.4 µM.

Consider `C[C@@H]1O[C@@H](O[C@H]2C(O)O[C@H](CO)[C@H](O)[C@@H]2O)[C@@H](O)[C@H](O)[C@@H]1O` (stereo partly drawn) [compound 479, H disaccharide], for which the Kd in data set [2] was 10.4 ± 3.26 µM; in data set [3], 26.6 ± 6.81 µM.

Regarding “An. gambiae CTLMA2 (AGAP005334), chain of the CTL4/CTLMA2 heterodimer”, the “percent of the purified product that is heterodimer” value in data set [5] is on record as “the purified product is overwhelmingly (>95%) heterodimer”.

As for `CC(=O)N[C@H]1C(O)O[C@H](CO)[C@@H](O[C@@H]2O[C@@H](C)[C@@H](O)[C@@H](O)[C@@H]2O)[C@@H]1O[C@@H]1O[C@H](CO)[C@H](O)[C@H](OS(=O)(=O)O)[C@H]1O` (stereo partly drawn) [compound 287, Sulfo-Lewis A], the Kd in data set [2] came out at 0.106 ± 0.06 µM; in data set [3] it was 0.095 ± 0.02 µM.

As to asialo-GM1 [18B], binding in data set [4] was put at a Kd of 15.4 ± 3.99 µM.

In the case of “Neu5Acα2-3(GalNAcβ1-4)Galβ1-4Glcβ-sp2 [compound 421]”, the CTL4/CTLMA2 in data set [6] stood at 1.94 fold.

Compound `CC(=O)N[C@H]1C(O)O[C@H](CO)[C@@H](O[C@@H]2O[C@H](COS(=O)(=O)O)[C@H](O)[C@H](O)[C@H]2O)[C@@H]1O` (stereo partly drawn) [compound 163] yielded a Kd in data set [4] of 0.292 ± 0.15 µM.

As for `O=P(O)(O)OC[C@H]1OC(O)[C@@H](O)[C@@H](O)[C@@H]1O` (stereo partly drawn) [compound 47, 6-H2PO3Manα-sp3], in data set [6], the CTL4/CTLMA2 is recorded as 1.32 fold.

With `CC(=O)N[C@H]1[C@H]([C@H](O)[C@H](O)CO)O[C@@](O[C@H]2[C@@H](O)[C@@H](CO)O[C@@H](O[C@H]3[C@H](O[C@@H]4O[C@@H](C)[C@@H](O)[C@@H](O)[C@@H]4O)[C@@H](NC(C)=O)C(O)O[C@@H]3CO)[C@@H]2O)(C(=O)O)C[C@@H]1O` (stereo partly drawn) [compound 428, Sialyl-Lewis X], the dissociation constant Kd was 0.619 ± 0.1 µM in data set [2] and 3.81 ± 1 µM in data set [3].

`CC(=O)N[C@H]1[C@H](O[C@H]2[C@@H](O)[C@@H](CO)O[C@@H](O[C@H]3[C@H](O)[C@@H](O)C(O)O[C@@H]3CO)[C@@H]2O)O[C@H](CO)[C@@H](O[C@@H]2O[C@H](CO)[C@H](O)[C@H](O)[C@H]2O)[C@@H]1O` (stereo partly drawn) [383,488, LNnT] yielded a Kd in data set [3] of 17.6 ± 2.99 µM.

Take “Neu5Acα2-3Galβ1-3GlcNAcβ1-3Galβ1-4Glcβ-sp4 [compound 536]”: the CTL4/CTLMA2 in data set [6] was 2.13 fold.

`CC(=O)N[C@H]1[C@H](O[C@H]2[C@@H](O)[C@@H](CO)O[C@@H](O[C@H]3[C@H](O)[C@@H](O)C(O)O[C@@H]3CO)[C@@H]2O)O[C@H](CO)[C@@H](O)[C@@H]1O[C@@H]1O[C@H](CO)[C@H](O)[C@H](O)[C@H]1O` (stereo partly drawn) [compound 536, LNT] yielded a Kd in data set [3] of 8.22 ± 1.71 µM.

For `CC(=O)N[C@H]1[C@@H](O[C@H]2[C@@H](O)[C@@H](CO)OC(O)[C@@H]2O[C@@H]2O[C@@H](C)[C@@H](O)[C@@H](O)[C@@H]2O)O[C@H](CO)[C@H](O)[C@@H]1O` (stereo partly drawn) [compound 386, A blood group trisaccharide], the equilibrium dissociation constant (Kd) in data set [2] stood at 1.77 ± 0.19 µM; in data set [3], 5.56 ± 2.9 µM; in data set [4], 49.3 ± 12.2 µM.

Broadly, the Kd is a measure of binding affinity in units of concentration. High values mean a looser complex, low ones a tighter complex.
